Reference: ChEMBL document CHEMBL1681651, “A broad spectrum anticancer nucleoside with selective toxicity against human colon cells in vitro” (2011)
Several values for one entry are separate records, joined by “and”; a condition that tells them apart may be missing. Identical values can stand only once.

Legend:
Assay type in all cases: functional
[1] = system: T47D; test: Growth inhibition of human T47D cells assessed as cell growth at 10 uM after 48 hrs by SRB assay; settings: read-out: Activity
[2] = system: CAKI-1; test: Growth inhibition of human Caki1 cells after 48 hrs by […] growth inhibition assay; settings: CAKI-1, 48 h
[3] = system: MDA-MB-435; test: Growth inhibition of human MDA-MB-435 cells assessed as cell growth at 10 uM after 48 hrs by SRB assay; settings: MDA-MB-435, 48 h, read-out: Activity
[4] = system: SNB-19; test: Growth inhibition of human SNB19 cells assessed as cell growth at 10 uM after 48 hrs by SRB assay; settings: SNB-19, 48 h, read-out: Activity
[5] = system: EKVX; test: Growth inhibition of human EKVX cells assessed as cell growth at 1 mM after 48 hrs by SRB assay; settings: read-out: Activity
[6] = system: M14; test: Growth inhibition of human M14 cells after 48 hrs by […] growth inhibition assay; settings: M14, 48 h
[7] = system: Malme-3M; test: Growth inhibition of human MALME-3M cells assessed as cell growth at 0.1 uM after 48 hrs by SRB assay; settings: read-out: Activity
[8] = system: PC-3; test: Growth inhibition of human PC3 cells assessed as cell growth at 1 mM after 48 hrs by SRB assay; settings: PC-3, 48 h, read-out: Activity
[9] = system: RXF 393; test: Growth inhibition of human RXF393 cells assessed as cell growth at 0.1 uM after 48 hrs by SRB assay; settings: RXF 393, 48 h, read-out: Activity
[10] = Growth inhibition of human […] cells assessed as cell growth at 1 mM after 48 hrs by SRB assay; settings: read-out: Activity
[11] = system: MCF7; test: Growth inhibition of human MCF7 cells assessed as cell growth at 1 mM after 48 hrs by SRB assay; set-up: Activity: scale not given: the % may be the effect or the level left
[12] = system: PC-3; test: Growth inhibition of human PC3 cells assessed as cell growth at 100 uM after 48 hrs by SRB assay; settings: PC-3, 48 h, read-out: Activity
[13] = system: DU-145; test: Growth inhibition of human DU145 cells assessed as cell growth at 10 uM after 48 hrs by SRB assay; settings: DU-145, 48 h, read-out: Activity
[14] = system: PC-3; test: Growth inhibition of human PC3 cells assessed as cell growth at 0.1 uM after 48 hrs by SRB assay; settings: PC-3, 48 h, read-out: Activity
[15] = read-out: LC50 (the source's name)
[16] = read-out: pLC50 (the source's name) (converted)

## CNC(=O)NC[C@H]1O[C@@H](n2cnc3c(NC(=O)Nc4ccccc4)ncnc32)[C@H](O[Si](C)(C)C(C)(C)C)[C@@H]1O[Si](C)(C)C(C)(C)C
[1]
  growth at 10 µM: 92%
[2]; read-out: GI50
  GI50: 2700 nM
[2]; [15]
  CC50: > 100 µM
[2]; read-out: TGI
  TGI: 7.93 µM
[2]; read-out: pGI50 (converted)
  GI50: 2690 nM
[2]; [16]
  CC50: > 100 µM
[2]; read-out: pTGI (converted)
  TGI: 7.94 µM
[3]
  growth at 10 µM: 97%
[4]
  growth at 10 µM: 91%
[5]
  growth at 1000 µM: -9%
[6]; read-out: GI50
  GI50: 4.33 µM
[6]; [15]
  CC50: 93.8 µM
[6]; read-out: TGI
  TGI: 18.5 µM
[6]; read-out: pGI50 (converted)
  GI50: 4.37 µM
[6]; [16]
  CC50: 93.3 µM
[6]; read-out: pTGI (converted)
  TGI: 18.6 µM
[7]
  growth at 0.1 µM: 105%
[8]
  growth at 1000 µM: 4%
[9]
  growth at 0.1 µM: 98%
[10]
  growth at 1000 µM: 4%
[11]
  Activity: -21% and -16%
[12]
  growth at 100 µM: 6%
[13]
  growth at 10 µM: 109%
[14]
  growth at 0.1 µM: 93%

## CNC(=O)OC[C@H]1O[C@@H](n2cnc3c(NC(=O)Nc4ccccc4)ncnc32)[C@H](O[Si](C)(C)C(C)(C)C)[C@@H]1O[Si](C)(C)C(C)(C)C
[1]
  growth at 10 µM: 116%
[3]
  growth at 10 µM: 94.9%
[4]
  growth at 10 µM: 114%
[13]
  growth at 10 µM: 106%
